Measured values: publication PMC6627609, “Targeting Quorum Sensing: High-Throughput Screening to Identify Novel LsrK Inhibitors” (International Journal of Molecular Sciences, 2019)
Counter-ions that a name gives are not always drawn.

Target: LsrK (Salmonella typhimurium, UniProt Q8ZKQ6)
Assay: biochemical
Format: biochemical, S. typhimurium
Conditions: not given

Sequence of LsrK (Q8ZKQ6 whole entry): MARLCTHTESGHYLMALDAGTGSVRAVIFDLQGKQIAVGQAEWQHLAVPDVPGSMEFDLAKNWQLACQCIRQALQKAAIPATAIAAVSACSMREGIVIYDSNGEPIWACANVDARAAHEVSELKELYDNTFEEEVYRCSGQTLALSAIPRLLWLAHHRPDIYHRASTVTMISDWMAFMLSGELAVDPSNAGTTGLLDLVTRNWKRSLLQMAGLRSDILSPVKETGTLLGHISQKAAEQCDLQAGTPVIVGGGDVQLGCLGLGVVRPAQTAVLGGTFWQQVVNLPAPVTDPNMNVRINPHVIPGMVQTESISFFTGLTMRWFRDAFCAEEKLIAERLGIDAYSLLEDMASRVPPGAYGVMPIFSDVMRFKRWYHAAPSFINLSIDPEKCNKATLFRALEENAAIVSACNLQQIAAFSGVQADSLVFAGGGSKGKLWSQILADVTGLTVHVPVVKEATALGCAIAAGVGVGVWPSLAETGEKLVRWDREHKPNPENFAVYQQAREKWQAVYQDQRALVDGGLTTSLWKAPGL

Row | Structure (SMILES) | inhibition at 50 µM [%] | IC50 [µM]
1 | CN1C[C@H](CNC(=O)OCc2ccccc2)C[C@@H]2c3cccc4c3c(cn4C)C[C@H]21 [METERGOLINE] | 3 | –
2 | C=C1c2cccc(O)c2C(=O)C2=C(O)[C@]3(O)C(=O)C(C(N)=O)=C(O)[C@@H](N(C)C)[C@@H]3[C@@H](O)[C@H]12 [METHACYCLINE HYDROCHLORIDE] | 97 | –
3 | C1N2CN3CN1CN(C2)C3 [METHENAMINE] | 2 | –
4 | COc1cccc(OC)c1C(=O)N[C@@H]1C(=O)N2[C@@H]1SC(C)(C)[C@@H]2C(=O)O [METHICILLIN SODIUM] | 1 | –
5 | COC(=O)c1cc(O)c(=O)c2c(O)c(O)ccc2c1 [METHYL 7-DESHYDROXYPYROGALLIN-4-CARBOXYLATE] | 112 | –
6 | COC(=O)c1c(C)cc(O)cc1O [METHYL ORSELLINATE] | 0 | –
7 | COc1c2c(cc3occ(-c4ccc5c(c4)OCO5)c(=O)c13)OC(C)(C)C=C2 [METHYL ROBUSTONE] | 1 | –
8 | CN(C)c1ccc2nc3ccc(=[N+](C)C)cc-3sc2c1 [METHYLENE BLUE] | 3 | –
9 | CC[C@@H](CO)NC(=O)[C@@H]1C=C2c3cccc4[nH]cc(c34)C[C@H]2N(C)C1 [METHYLERGONOVINE MALEATE] | 1 | –
10 | Cc1cc(=O)[nH]c(=S)[nH]1 [METHYLTHIOURACIL] | 4 | –
11 | Cc1ccccc1N1C(=O)c2cc(S(N)(=O)=O)c(Cl)cc2NC1C (stereo not drawn) [METOLAZONE] | 1 | –
12 | Cc1ncc([N+](=O)[O-])n1CCO [METRONIDAZOLE] | 0 | –
13 | CN(C)c1ccc(O)c2c1C[C@H]1C[C@H]3[C@H](N(C)C)C(O)=C(C(N)=O)C(=O)[C@@]3(O)C(O)=C1C2=O [MINOCYCLINE HYDROCHLORIDE] | 71 | –
14 | CO[C@@]12[C@H](COC(N)=O)C3=C(C(=O)C(C)=C(N)C3=O)N1C[C@@H]1N[C@@H]12 [MITOMYCIN C] | 0 | –
15 | NC(=O)C[S+]([O-])C(c1ccccc1)c1ccccc1 (stereo not drawn) [MODAFINIL] | 1 | –
16 | CCOC(=O)[N-]c1cn(N2CCOCC2)n[o+]1 [MOLSIDOMINE] | 0 | –
17 | C[C@H]1C(=O)O[C@@H]2CCN3CC=C(COC(=O)[C@](C)(O)[C@]1(C)O)[C@H]23 [MONOCROTALINE] | 111 | –
18 | Cc1ccsc1/C=C/C1=NCCCN1C [MORANTEL CITRATE] | 0 | –
19 | O=c1c(O)c(-c2ccc(O)cc2O)oc2cc(O)cc(O)c12 [MORIN] | 154 | –
20 | CO[C@@]1(NC(=O)C(C(=O)O)c2ccc(O)cc2)C(=O)N2C(C(=O)O)=C(CSc3nnnn3C)CO[C@@H]21 (stereo partly drawn) [MOXALACTAM DISODIUM] | 1 | –
21 | COc1c(-c2coc3cc4c(cc3c2=O)CC(O)C(C)(C)O4)ccc2c1C=CC(C)(C)O2 (stereo not drawn) [MUNDULONE] | 0 | –
22 | CC1=CC2C(CC1=O)C(C)=CCC2C(C)C (stereo not drawn) [MUUROLLADIE-3-ONE] | 1 | –

Row | Structure (SMILES) | inhibition at 50 µM [%] | IC50 [µM]
23 | COc1c(C)c2c(c(O)c1C/C=C(\C)CCC(=O)O)C(=O)OC2 [MYCOPHENOLIC ACID] | 1 | –
24 | c1cncc(C2=NCCC2)c1 [MYOSMINE] | 2 | –
25 | O=c1c(O)c(-c2cc(O)c(O)c(O)c2)oc2cc(O)cc(O)c12 [MYRICETIN] | 14 | –
26 | CCOc1ccc2ccccc2c1C(=O)N[C@@H]1C(=O)N2[C@@H]1SC(C)(C)[C@@H]2C(=O)O [NAFCILLIN SODIUM] | 23 | –
27 | COc1ccc2cc([C@H](C)CO)ccc2c1 [NAPROXOL] | 0 | –
28 | C[C@@H]1C/C=C/C=C/C=C/C=C/[C@H](O[C@@H]2O[C@H](C)[C@@H](O)[C@H](N)[C@@H]2O)C[C@@H]2O[C@](O)(C[C@@H](O)C[C@H]3O[C@@H]3/C=C/C(=O)O1)C[C@H](O)[C@H]2C(=O)O [NATAMYCIN] | 12 | –
29 | CC(C)[C@H]1CC[C@H](C(=O)N[C@H](Cc2ccccc2)C(=O)O)CC1 [NATEGLINIDE] | 1 | –
30 | CN1CCOC(c2ccccc2)c2ccccc2C1 (stereo not drawn) [NEFOPAM] | 1 | –
31 | CC(C)=CCC/C(C)=C\CO [NEROL] | 1 | –
32 | NC(=O)c1cccnc1 [NIACINAMIDE] | 1 | –
33 | O=C(CCNNC(=O)c1ccncc1)NCc1ccccc1 [NIALAMIDE] | 3 | –
34 | O=C(Nc1ccc([N+](=O)[O-])cc1Cl)c1cc(Cl)ccc1O [NICLOSAMIDE] | 0 | –
35 | OCc1cccnc1 [NICOTINYL ALCOHOL TARTRATE] | 1 | –
36 | COC(=O)C1=C(C)NC(C)=C(C(=O)OC)C1c1ccccc1[N+](=O)[O-] [NIFEDIPINE] | 98 | –
37 | O=C(O)C1CCCNC1 (stereo not drawn) [NIPECOTIC ACID] | 0 | –
38 | COC(=O)C1=C(C)NC(C)=C(C(=O)OCC(C)C)C1c1ccccc1[N+](=O)[O-] (stereo not drawn) [NISOLDIPINE] | 154 | –
39 | CCOC(=O)C1=C(C)NC(C)=C(C(=O)OC)C1c1cccc([N+](=O)[O-])c1 (stereo not drawn) [NITRENDIPINE] | 1 | –
40 | NC[C@H](O)c1ccc(O)c(O)c1 [NOREPINEPHRINE, reference compound] | 74 | 30
41 | C#C[C@]1(O)CC[C@H]2[C@@H]3CCC4=CC(=O)CC[C@@H]4[C@H]3CC[C@@]21C [NORETHINDRONE] | 0 | –
42 | C#C[C@]1(O)CC[C@H]2[C@@H]3CCC4=C(CCC(=O)C4)[C@H]3CC[C@@]21C [NORETHYNODREL] | 1 | –
43 | c1ccc2c(c1)[nH]c1cnccc12 [NORHARMAN] | 1 | –
44 | COc1ccc2c(c1OC)C(=O)O[C@@H]2[C@H]1c2c(cc3c(c2OC)OCO3)CCN1C [NOSCAPINE HYDROCHLORIDE] | 1 | –

Row | Structure (SMILES) | inhibition at 50 µM [%] | IC50 [µM]
45 | CO[C@@H]1[C@@H](OC(N)=O)[C@@H](O)[C@H](Oc2ccc3c(O)c(NC(=O)c4ccc(O)c(CC=C(C)C)c4)c(=O)oc3c2C)OC1(C)C [NOVOBIOCIN SODIUM] | 0 | –
46 | COC1=CC(=O)C(O)=C/C1=C\C=C\c1ccccc1 [OBTUSAQUINONE] | 130 | –
47 | NCC(O)c1ccc(O)cc1 (stereo not drawn) [OCTOPAMINE HYDROCHLORIDE] | 2 | –
48 | CC1COc2c(N3CCN(C)CC3)c(F)cc3c(=O)c(C(=O)O)cn1c23 (stereo not drawn) [OFLOXACIN] | 4 | –
49 | CCCc1nc(C(C)(C)O)c(C(=O)OCc2oc(=O)oc2C)n1Cc1ccc(-c2ccccc2-c2nnn[nH]2)cc1 [OLMESARTAN MEDOXOMIL] | 0 | –
50 | COc1ccc2[nH]c([S+]([O-])Cc3ncc(C)c(OC)c3C)nc2c1 (stereo not drawn) [OMEPRAZOLE] | 6 | –
51 | COc1ccc(CC(=O)c2ccc(O)cc2O)cc1 [ONONETIN] | 5 | –
52 | NCCC[C@H](N)C(=O)O [ORNITHINE] | 1 | –
53 | O=C(O)c1cc(=O)[nH]c(=O)[nH]1 [OROTIC ACID] | 1 | –
54 | O=C(O)CCc1nc(-c2ccccc2)c(-c2ccccc2)o1 [OXAPROZIN] | 13 | –
55 | CN(C(=O)CN(CCO)CC(=O)N(C)C(C)(C)Cc1ccccc1)C(C)(C)Cc1ccccc1 [OXETHAZAINE] | 0 | –
56 | COC(=O)Nc1nc2ccc([S+]([O-])c3ccccc3)cc2[nH]1 (stereo not drawn) [OXFENDAZOLE] | 27 | –
57 | CCCOc1ccc2nc(NC(=O)OC)[nH]c2c1 [OXIBENDAZOLE] | 2 | –
58 | NCCc1cc(O)c(O)cc1O [OXIDOPAMINE HYDROCHLORIDE] | 117 | –
59 | CCn1cc(C(=O)O)c(=O)c2cc3c(cc21)OCO3 [OXOLINIC ACID] | 1 | –
60 | CCCCC1C(=O)N(c2ccccc2)N(c2ccc(O)cc2)C1=O (stereo not drawn) [OXYPHENBUTAZONE] | 93 | –
61 | CC[N+](C)(CC)CCOC(=O)C(O)(c1ccccc1)C1CCCCC1 (stereo not drawn) [OXYPHENONIUM BROMIDE] | 4 | –
62 | CN(C)[C@@H]1C(O)=C(C(N)=O)C(=O)[C@@]2(O)C(O)=C3C(=O)c4c(O)cccc4[C@@](C)(O)[C@H]3[C@H](O)[C@@H]12 [OXYTETRACYCLINE] | 94 | –
63 | CC(=O)O[C@H]1C[C@@H]2CC[C@@H]3[C@H](CC[C@@]4(C)[C@H]3C[C@H]([N+]3(C)CCCCC3)[C@@H]4OC(C)=O)[C@@]2(C)C[C@@H]1[N+]1(C)CCCCC1 [PANCURONIUM BROMIDE] | 0 | –
64 | CC(C)(CO)[C@@H](O)C(=O)NCCC(=O)NCCSSCCNC(=O)CCNC(=O)[C@H](O)C(C)(C)CO [PANTETHINE] | 0 | –

Same assay, conditions: 50 µM

Row | Structure (SMILES) | Inhibition (%)
65 | Cc1cc(C(C)(C)CC(C)(C)C)ccc1OCCOCC[N+](C)(C)Cc1ccccc1.[Cl-] [METHYLBENZETHONIUM CHLORIDE] | 89
66 | COc1cc(OC)c(C(C)=O)c(OC)c1 [METHYLXANTHOXYLIN] | 4
67 | Cl.Cl.O=C1c2c(O)ccc(O)c2C(=O)c2c(NCCNCCO)ccc(NCCNCCO)c21 [MITOXANTHRONE HYDROCHLORIDE] | 2
68 | CC(=O)Oc1cc(C(C)C)c(OCCN(C)C)cc1C.Cl [MOXISYLYTE HYDROCHORIDE] | 2
69 | CNCc1ccccc1.Cl [N-METHYLBENZYLAMINE HYDROCHLORIDE] | 0
70 | NC(N)=NC(=O)c1nc(Cl)c(N2CCCCCC2)nc1N [N.N-HEXAMETHYLENEAMILORIDE] | 1
71 | CN1CCC[C@H]1c1cccnc1.O=C(O)C(O)C(O)C(=O)O.O=C(O)C(O)C(O)C(=O)O [NICOTINE DITARTRATE] | 0
72 | NC(=O)c1cc([N+](=O)[O-])cc([N+](=O)[O-])c1 [NITROMIDE] | 1
73 | C[C@@H]1[C@H](O)[C@@H](C)/C=C/C=C/CC/C=C/C=C/C=C/C=C/C(O[C@H]2O[C@H](C)[C@@H](O)[C@H](N)[C@@H]2O)CC2O[C@](O)(CC(O)C(O)CCC(O)CC(O)CC(O)CC(=O)O[C@H]1C)CC(O)C2C(=O)O (stereo partly drawn) [NYSTATIN] | 41
74 | CC(=O)O[C@H]1CC[C@]2(C)[C@H]3CC=C4[C@@H]5CC(C)(C)CC[C@]5(C(=O)O)CC[C@@]4(C)[C@]3(C)CC[C@H]2C1(C)C [OLEANOLIC ACID ACETATE] | 14
75 | CN1CCCN=C1/C=C/c1cccc(O)c1.O=C(O)c1cc2ccccc2c(Cc2c(O)c(C(=O)O)cc3ccccc23)c1O [OXANTEL PAMOATE] | 6
76 | COC[C@]12CN(C=O)[C@@H]3[C@@H]4[C@H](OC)[C@H]1[C@@]3([C@@H](OC)C[C@H]2O)[C@@H]1C[C@@]2(O)[C@H](OC(=O)c3ccccc3)[C@@H]1[C@]4(OC(C)=O)[C@@H](O)[C@@H]2OC [OXONITINE] | 0
77 | COc1cc2c(cc1-c1cc3cc4ccoc4cc3oc1=O)OCO2 [PACHYRRHIZIN] | 1
